Laboratory results: US20040002069A1, “Hepatic gene expression profiling of streptozotocin-induced diabetes” (The Regents of the University of California, priority 2002, published 2004)

Test system: hepatic gene expression
Assay: Hepatic gene expression profiling of streptozotocin-induced diabetes (Affymetrix Mu11KsubA/Mu11KsubB arrays)
Assay type: in vivo, Swiss-Webster mice
Details: liver, STZ vs control mice
Experimental: Mice and treatment. Female, 8-month old Swiss-Webster mice were purchased from Jackson Laboratories. Diabetes was induced by three weekly intraperitoneal injections of streptozotocin (STZ; 10 mg/100 g body weight) in 50 mM sodium citrate, pH 4.5. […] Only mice with blood glucose levels higher than 3 mg/ml were used. Mice injected with equivalent volumes of sodium citrate at the same times served as controls. Mice were sacrificed one week after the last injection. Mice were fasted for 24 h before sacrifice.
Measurement of Specific mRNA Levels. Total liver RNA was isolated from frozen tissue fragments using TRI Reagent (Molecular Research Center, Inc., Cincinnati, Ohio) as described previously (Cao et al., Proc. Natl. Acad. Sci. U.S. A. 98:10630-10635 (2001)). Specific mRNA levels were measured using the Affymetrix Mu11KsubA and Mu11KsubB high-density oligonucleotide arrays using standard Affymetrix protocols as described (Cao et al., Proc. Natl. Acad. Sci. U.S. A. 98:10630-10635 (2001)). Briefly, cDNA was prepared from total RNA using Superscript Choice System with a primer containing oligo(dT) and the T7 RNA polymerase promoter sequence. Biotinylated cRNA was synthesized from purified cDNA using the Enzo BioArray High Yield RNA Transcript Labeling Kit (Enzo Biochem), and CRNA purified using RNeasy mini columns (Qiagen, Chatsworth, Calif.). An equal amount of cRNA from each animal was separately hybridized to Mu11KsubA and Mu11ksubB high-density oligonucleotide arrays. The arrays were hybridized for 16 h at 45° C. After hybridization, arrays were washed, stained with streptavidin-phycoerythrin, and scanned using a Hewlett-Packard GeneArray Scanner.
Data Analysis and Statistics. Image analysis and data quantification were performed using the Affymetrix Microarray Suite 5.0. Affymetrix Mu11KsubA and Mu11KsubB arrays contain targets for more than 11,000 mouse genes and expressed sequence tags (ESTs). Each gene or EST is represented on the array by 20 perfectly matched (PM) oligonucleotides and 20 mismatched (MM) control probes that contain a single central-base mismatch. The signal intensities of PM and MM were used to calculate a discrimination score, R, which is equal to (PM−MM)/(PM+MM). A detection algorithm utilized R to generate a detection p-value and assign a Present, Marginal or Absent call using the Wilcoxon signed rank test (Wilcoxon F., Biometrics 1:80-83 (1945); Affymetrix, Inc., New Statistical Algorithms for Monitoring Gene Expression on GeneChip Probe Arrays, Technical Notes 1, Part No. 701097 Rev. 1 (2001)). Only genes that were “Present” in at least 2 out of 3 arrays per experimental group were considered for further analysis. A signal algorithm calculated the relative level of expression of each transcript using the One-Step Tukey's Biweight Estimate (Affymetrix, Inc., New Statistical Algorithms for Monitoring Gene Expression on GeneChip Probe Arrays, Technical Notes 1, Part No. 701097 Rev. 1 (2001)). This procedure generates a robust weighted mean that is relatively insensitive to outliers, even when they are extreme. Genes with a signal intensity lower than the mean array signal intensity in 2 or more of the 3 arrays in either experimental group were eliminated from the analysis. All arrays were scaled to a target intensity of 2500. To identify differentially expressed genes, each of the 3 control samples was compared with each of the 3 STZ-treated samples, resulting in 9 pairwise comparisons. […] Difference values (PM-MM) between the control and STZ-treated arrays were used to generate a one-sided p-value for each set of probes. Default boundaries between significant and not significant p-values were used (Affymetrix, Inc., New Statistical Algorithms for Monitoring Gene Expression on GeneChip Probe Arrays, Technical Notes 1, Part No. 701097 Rev. 1 (2001)). […]

CN(N=O)C(=O)N[C@H]1C(O)O[C@H](CO)[C@@H](O)[C@@H]1O (mixture of isomers) [STZ, streptozotocin]
2.1 fold: FC X-box binding protein 1 (Xbp1) mRNA (GenBank AA016424) | FC Activating transcription factor 5 (Atf5) mRNA (GenBank AA270796) | FC Nuclear receptor coactivator 3 (Ncoa3) mRNA (GenBank AA390043) | FC Ring finger protein 4 (Rnf4) mRNA (GenBank AA600461) | FC mc25d02.rl Soares mouse cDNA clone IMAGE:349539 (GenBank W3021 1)
3.5 fold: FC Heat shock protein, 74 kDa, A (Hspa9A) mRNA (GenBank AA138378)
2.5 fold: FC CathepsinL (Ctsl) mRNA (GenBank AA096813) | FC NADH dehydrogenase (ubiquinone) 1 beta subcomplex 6 mRNA (GenBank AA277720) | FC C77421 Mouse 3.5-dpc blastocyst cDNA clone J0030G04, similar to Mouse B10.VL30LTR gene (GenBank C77421)
−14.0 fold: FC Stearoyl-Coenzyme A desaturase 1 (Sed1) mRNA (GenBank AA137436)
2.6 fold: FC Similar to eukaryotic translation initiation factor 4 gamma, 1 (0610008L05Rik) (GenBank AA038437)
−4.6 fold: FC Ribonuclease, Rnase A family 4 (Rnase4) mRNA (GenBank AA289858)
1.8 fold: FC Carbon catabolite repression 4 homolog (S. cerevisiae) (Ccr4) mRNA (GenBank AA172909) | FC Erythroid differentiation regulator (Edr) mRNA (GenBank AA174883) | FC Nuclear receptor coactivator 4 (Ncoa4) mRNA (GenBank AA217659) | FC Splicing factor 3b, subunit 1, 155 kDa (Sf3b1) mRNA (GenBank AA277153) | FC Expressed sequence AA960392 (GenBank AA592283) | FC RIKEN cDNA 2700059D21 gene (GenBank AA655730) | FC Expressed sequence C79645 (GenBank C79645)
−2.0 fold: FC Isopentenyl-diphosphate delta-isomerase mRNA (GenBank AA267683) | FC Sirtuin 2 (Sirt2) mRNA (GenBank AA472476)
2.0 fold: FC RIKEN cDNA 1110002E23 gene (GenBank AA000467) | FC Proteasome (prosome, macropain) subunit, alpha type 4 (Psma4) mRNA (GenBank AA008321) | FC Cysteine-rich protein 2 (Csrp2) mRNA (GenBank AA028770) | FC Poly A binding protein, cytoplasmic 1 (Pabpc1) mRNA (GenBank AA106783) | FC Argininosuccinate lyase (As1) mRNA (GenBank AA237297) | FC Cellular repressor of E1A-stimulated genes (Creg) mRNA (GenBank AA271265) | FC RIKEN cDNA 1810020N21 gene (GenBank AA538556) | FC vq87g01.r1 Knowles Solter mouse blastocyst B3 cDNA clone IMAGE: 1109328 (GenBank AA666984)
1.9 fold: FC RIKIEN cDNA 1810034D23 gene (GenBank AA066610) | FC mp72b03.rl Soares thymus cDNA clone IMAGE:574733, similar to cyclophilin (GenBank AA124572) | FC Protease (prosome, macropain) 28 subunit, alpha (Psme1) mRNA (GenBank AA165782) | FC RIKEN cDNA 2310009NO5 gene (2310009N05Rik) (GenBank AA260798) | FC vb90b12.rl Soares mouse 3NbMS cDNA clone IMAGE:764255 (GenBank AA285530) | FC Splicing factor, arginine/serine-rich 5 (SRp40, HRS) (Sfrs5) mRNA (GenBank AA388848) | FC Retinal taurine transporter; solute carrier family 6, member 6 (Slc6a6) mRNA (GenBank AA472795) | FC RAB9, member RAS oncogene family (Rab9) mRNA (GenBank AA518955) | FC Interferon alpha responsive gene, 15 kDa (Ifrg15-pending) mRNA (GenBank AA608036) | FC ATP synthase, H+ transporting, mitochondrial F0 complex, subunit b, isoform 1 (Atp5f1) mRNA (GenBank W08392) | FC Destrin (Dsn) mRNA (GenBank W08453)
−2.5 fold: FC Cytochrome P450, 2c40 (Cyp2c40) mRNA (GenBank AA137659) | FC Expressed sequence A1266885 (GenBank AA250708)
3.6 fold: FC Bifunctional aminoacyl-tRNA synthetase mRNA (GenBank AA048927) | FC Phosphoenolpyruvate carboxykinase 1, cytosolic (Pck1) mRNA (GenBank AA110781)
